This is an account of results in ChEMBL document CHEMBL1148375, “Discovery of a bulky 2-tert-butyl group containing primaquine analogue that exhibits potent blood-schizontocidal antimalarial activities and complete elimination of methemoglobin toxicity” (J Med Chem, 2004).

Assay type in all cases: functional, organism-based
In experiment [1] the test system is Mus musculus. The experiment can be described thus: Compound was evaluated for the blood-schizonticidal antimalarial activity against Plasmodium berghei (sensitive strain) in mice (Mus musculus) at 100 mg/kg/day x 4 (oral); indicates that the treated animals show positive parasitaemia either on D+4 or D+7 and usually dieby D+14 (survival=0/6).
For experiment [2], the system named is Mus musculus. The experiment can be described thus: Compound was evaluated for the blood-schizonticidal antimalarial activity against Plasmodium yoelii nigeriensis (multidrug-resistant strain) in mice (Mus musculus) at 100 mg/kg/day x 4 (oral); indicates that the treated animals show positive parasitaemia either on D+4 orD+7 and usually die by D+14 (survival=0/6).

The test system of experiment [3] is Plasmodium falciparum. Description: Inhibitory concentration against chloroquine-sensitive Plasmodium falciparum.
For experiment [4], the system named is Mus musculus. Description: Compound was evaluated for the blood-schizonticidal antimalarial activity against Plasmodium berghei (sensitive strain) in mice (Mus musculus) at 100 mg/kg/day x 4 (oral); indicates complete elimination of malaria parasites from the body, and animals survive up to day D+60 (survival=6/6).
The subject of experiment [5] is Mus musculus. Description: Compound was evaluated for the blood-schizonticidal antimalarial activity against Plasmodium berghei (sensitive strain) in mice (Mus musculus) at 25 mg/kg/day x 4 (oral); indicates complete elimination of malaria parasites from the body, and animals survive up to day D+60 (survival=6/6).
Experiment [6] has as its system Plasmodium falciparum. The experiment can be described thus: Inhibitory activity I50 against chloroquine-sensitive Plasmodium falciparum.
Experiment [7] relates to Mus musculus. The experiment can be described thus: Compound was evaluated for the blood-schizonticidal antimalarial activity against Plasmodium berghei (sensitive strain) in mice (Mus musculus) at 50 mg/kg/day x 4 (oral); indicates complete elimination of malaria parasites from the body, and animals survive up to day D+60 (survival=6/6).
Experiment [8] deals with Mus musculus. Description: Compound was evaluated for the blood-schizonticidal antimalarial activity against Plasmodium yoelii nigeriensis (multidrug-resistant strain) in mice (Mus musculus) at 100 mg/kg/day x 4 (oral); indicates complete elimination of malaria parasites from the body, and animalssurvive up to day D.
For experiment [9], the system named is Mus musculus. Description: Compound was evaluated for the blood-schizonticidal antimalarial activity against Plasmodium yoelii nigeriensis (multidrug-resistant strain) in mice (Mus musculus) at 50 mg/kg/day x 4 (oral); indicates that all of the treated animals show negative parasitaemia up to D+7(survival=4/6).
Experiment [10] deals with Mus musculus. The experiment can be described thus: Compound was evaluated for the blood-schizonticidal antimalarial activity against Plasmodium berghei (sensitive strain) in mice (Mus musculus) at 10 mg/kg/day x 4 (oral); indicates that all of the treated animals show negative parasitaemia up to D+7 (survival=4/6).

Values after ≈ are worked out from the molar mass of the structure shown. Active and inactive are the calls of the source. The calls are words filed in the database; no cut-off is given here.

Usually IC50 stands for the concentration needed to halve the response being measured.

On to `COc1cc(NC(C)CCCN)c2ncccc2c1` (configuration not stated), for which the Antimalarial activity result in experiment [1] and in experiment [2] was “inactive” each time.
As to `COc1cc(NC(C)CCCN)c2nc(C34C[C@H]5C[C@@H](C3)C[C@@H](C4)C5)ccc2c1` (some centres not stated), the Antimalarial activity entry in experiment [1] and in [2] was “inactive” throughout. The compound also showed an IC50 in experiment [3] above 0.5 µg/mL.
For the compound `COc1cc(NC(C)CCCN)c2nc(C(C)(C)C)ccc2c1` (configuration not stated), the Antimalarial activity result in [4], in experiment [5], in experiment [7] and in experiment [8] was “Curative” throughout. In experiment [6], this compound displayed an IC50 of 0.0391 µg/mL (≈ 0.124 µM). Besides, the Antimalarial activity result in experiment [9] and in [10] was “Active” throughout.
